Values after ≈ are worked out from the molar mass of the structure shown.
Experiments:
[1] = tested on: Streptococcus pneumoniae; experiment: Antimicrobial activity against penicillin-resistant Streptococcus pneumoniae 24 by CLSI method; format: functional
[2] = tested on: Streptococcus pneumoniae; experiment: Antimicrobial activity against penicillin-resistant Streptococcus pneumoniae 3413 by CLSI method; format: functional
[3] = tested on: Streptococcus pneumoniae; experiment: Antimicrobial activity against Streptococcus pneumoniae 1394 by CLSI method; format: functional
[4] = tested on: Streptococcus pneumoniae; experiment: Antimicrobial activity against Streptococcus pneumoniae 2688 by CLSI method; format: functional
[5] = tested on: Streptococcus pneumoniae; experiment: Antimicrobial activity against penicillin-intermediate Streptococcus pneumoniae 3676 by CLSI method; format: functional
[6] = tested on: Streptococcus pneumoniae; experiment: Antimicrobial activity against penicillin-intermediate Streptococcus pneumoniae 3243 by CLSI method; format: functional
[7] = tested on: Streptococcus pneumoniae; experiment: Antimicrobial activity against penicillin-sensitive Streptococcus pneumoniae 3009 by CLSI method; format: functional
[8] = Displacement of Biocillin FL from Streptococcus pneumoniae 24 PBP1B
[9] = biological target: T1, Penicillin-binding protein 2x (Streptococcus pneumoniae serotype 4 (strain ATCC BAA-334 / TIGR4), UniProt P14677); experiment: Displacement of Biocillin FL from Streptococcus pneumoniae 3676 PBP2X
T1 sequence (P14677 whole entry): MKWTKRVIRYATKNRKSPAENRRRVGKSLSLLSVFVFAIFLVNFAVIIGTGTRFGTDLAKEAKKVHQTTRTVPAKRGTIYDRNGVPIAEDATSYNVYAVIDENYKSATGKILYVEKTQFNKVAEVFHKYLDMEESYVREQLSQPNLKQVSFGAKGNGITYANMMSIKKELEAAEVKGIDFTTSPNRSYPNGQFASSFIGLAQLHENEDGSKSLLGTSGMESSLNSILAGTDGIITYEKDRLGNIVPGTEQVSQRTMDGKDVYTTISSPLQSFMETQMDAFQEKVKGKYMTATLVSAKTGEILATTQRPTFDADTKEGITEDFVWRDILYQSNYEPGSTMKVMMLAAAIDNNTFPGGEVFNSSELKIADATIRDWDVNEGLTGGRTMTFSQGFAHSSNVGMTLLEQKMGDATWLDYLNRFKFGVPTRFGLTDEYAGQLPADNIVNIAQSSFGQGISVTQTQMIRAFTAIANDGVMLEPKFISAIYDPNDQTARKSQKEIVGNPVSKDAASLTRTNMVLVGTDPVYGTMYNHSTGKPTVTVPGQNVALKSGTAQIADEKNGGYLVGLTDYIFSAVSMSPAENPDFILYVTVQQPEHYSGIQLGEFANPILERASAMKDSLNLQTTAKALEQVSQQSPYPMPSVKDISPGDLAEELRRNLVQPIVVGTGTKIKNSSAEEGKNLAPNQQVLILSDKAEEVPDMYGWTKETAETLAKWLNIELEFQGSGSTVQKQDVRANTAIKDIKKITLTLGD

[10] = biological target: T1, Penicillin-binding protein 2x; experiment: Displacement of Biocillin FL from Streptococcus pneumoniae 3665 PBP2X
[11] = biological target: T1, Penicillin-binding protein 2x; experiment: Displacement of Biocillin FL from Streptococcus pneumoniae 3009 PBP2X
[12] = biological target: T1, Penicillin-binding protein 2x; experiment: Displacement of Biocillin FL from Streptococcus pneumoniae 1077 PBP2X
[13] = Displacement of Biocillin FL from Streptococcus pneumoniae 3413 PBP2A
[14] = Displacement of Biocillin FL from Streptococcus pneumoniae 3676 PBP2A
[15] = Displacement of Biocillin FL from Streptococcus pneumoniae 1076 PBP2A
[16] = biological target: T2, Penicillin-binding protein 2B (Streptococcus pneumoniae serotype 4 (strain ATCC BAA-334 / TIGR4), UniProt P0A3M5); experiment: Displacement of Biocillin FL from Streptococcus pneumoniae 24 PBP2B
T2 sequence (P0A3M5 whole entry): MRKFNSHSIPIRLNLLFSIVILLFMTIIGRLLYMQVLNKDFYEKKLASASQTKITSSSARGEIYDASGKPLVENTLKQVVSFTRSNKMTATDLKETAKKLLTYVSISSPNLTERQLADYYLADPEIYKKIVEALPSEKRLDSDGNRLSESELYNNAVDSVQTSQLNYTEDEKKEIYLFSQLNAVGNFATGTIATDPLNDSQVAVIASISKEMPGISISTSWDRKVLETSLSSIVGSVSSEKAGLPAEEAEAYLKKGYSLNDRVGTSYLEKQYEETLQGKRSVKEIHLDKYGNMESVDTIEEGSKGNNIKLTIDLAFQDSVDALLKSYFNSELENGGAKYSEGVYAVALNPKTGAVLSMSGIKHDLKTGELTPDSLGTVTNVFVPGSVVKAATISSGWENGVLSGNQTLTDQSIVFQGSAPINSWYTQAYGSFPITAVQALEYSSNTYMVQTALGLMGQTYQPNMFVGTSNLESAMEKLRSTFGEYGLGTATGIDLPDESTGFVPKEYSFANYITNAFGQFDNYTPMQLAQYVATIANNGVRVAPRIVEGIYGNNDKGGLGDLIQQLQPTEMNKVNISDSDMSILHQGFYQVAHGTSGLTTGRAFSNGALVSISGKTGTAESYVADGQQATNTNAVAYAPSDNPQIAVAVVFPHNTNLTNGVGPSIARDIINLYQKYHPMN

[17] = biological target: T2, Penicillin-binding protein 2B; experiment: Displacement of Biocillin FL from Streptococcus pneumoniae 3665 PBP2B
[18] = Displacement of Biocillin FL from Streptococcus pneumoniae 24 PBP3
[19] = Displacement of Biocillin FL from Streptococcus pneumoniae 3413 PBP3
[20] = Displacement of Biocillin FL from Streptococcus pneumoniae 3243 PBP3
[21] = Displacement of Biocillin FL from Streptococcus pneumoniae 1076 PBP3
[22] = Displacement of Biocillin FL from Streptococcus pneumoniae 1077 PBP3
[23] = tested on: Streptococcus pneumoniae; experiment: Antimicrobial activity against Streptococcus pneumoniae serotype 19A; format: functional

| Structure (SMILES) | MIC [1] [µg/mL] | MIC [2] [µg/mL] | MIC [3] [µg/mL] | MIC [4] [µg/mL] | MIC [5] [µg/mL] | MIC [6] [µg/mL] | MIC [7] [µg/mL] | IC50 [8] [µg/mL] | IC50 [9] [nM] | IC50 [10] [nM] | IC50 [11] [nM] | IC50 [12] [nM] | IC50 [13] [µg/mL] | IC50 [14] [µg/mL] | IC50 [15] [µg/mL] | IC50 [16] [nM] | IC50 [17] [nM] | IC50 [18] [µg/mL] | IC50 [19] [µg/mL] | IC50 [20] [µg/mL] | other results |
| --- | --- | --- | --- | --- | --- | --- | --- | --- | --- | --- | --- | --- | --- | --- | --- | --- | --- | --- | --- | --- | --- |
| CC1(C)S[C@@H]2[C@H](NC(=O)[C@H](N)c3ccc(O)cc3)C(=O)N2[C@H]1C(=O)O [AMOXICILLIN] | 2 (≈ 5.47 µM) | 2 (≈ 5.47 µM) | 8 (≈ 21.9 µM) | 16 (≈ 43.8 µM) | 0.03 (≈ 0.0821 µM) | 0.06 (≈ 0.164 µM) | 0.016 (≈ 0.0438 µM) | 1.103 (≈ 3.02 µM) | 118 | 257 | 21.9 | 60.2 | 0.034 (≈ 0.093 µM) | 0.066 (≈ 0.181 µM) | 0.08 (≈ 0.219 µM) | 482 | 602 | 0.049 (≈ 0.134 µM) | 0.029 (≈ 0.0794 µM) | 0.006 (≈ 0.0164 µM) | IC50 [21]: 0.051 µg/mL (≈ 0.14 µM); IC50 [22]: 0.022 µg/mL (≈ 0.0602 µM) |
| CO/N=C(\C(=O)N[C@@H]1C(=O)N2C(C(=O)O)=C(COC(N)=O)CS[C@H]12)c1ccco1 [CEFUROXIME] | 2 (≈ 4.71 µM) | 4 (≈ 9.43 µM) | 16 (≈ 37.7 µM) | 4 (≈ 9.43 µM) | 0.125 (≈ 0.295 µM) | 0.25 (≈ 0.589 µM) | 0.03 (≈ 0.0707 µM) | 0.923 (≈ 2.17 µM) | 47.1 | 33 | 0.0943 | 14.1 | 0.002 (≈ 0.00471 µM) | 0.011 (≈ 0.0259 µM) | 0.004 (≈ 0.00943 µM) | 89.5 | 34700 | 0.002 (≈ 0.00471 µM) | 0.004 (≈ 0.00943 µM) | 0.023 (≈ 0.0542 µM) | IC50 [21]: 0.021 µg/mL (≈ 0.0495 µM); IC50 [22]: 0.071 µg/mL (≈ 0.167 µM) |
| C[C@@H](O)[C@H]1C(=O)N2C(C(=O)O)=C([C@H]3CCCO3)S[C@H]12 [FAROPENEM] | 1 (≈ 3.5 µM) | 1 (≈ 3.5 µM) | 0.03 (≈ 0.105 µM) | 0.06 (≈ 0.21 µM) | 0.125 (≈ 0.438 µM) | 0.125 (≈ 0.438 µM) | 0.03 (≈ 0.105 µM) | 0.06 (≈ 0.21 µM) | 59.6 | 606 | 214 | 687 | 0.007 (≈ 0.0245 µM) | 0.053 (≈ 0.186 µM) | 0.035 (≈ 0.123 µM) | 116 | 165 | 0.015 (≈ 0.0526 µM) | 0.003 (≈ 0.0105 µM) | 0.004 (≈ 0.014 µM) | IC50 [21]: 0.015 µg/mL (≈ 0.0526 µM); IC50 [22]: 0.006 µg/mL (≈ 0.021 µM); MIC90 [23]: 1 µg/mL (≈ 3.5 µM) |
| C[C@@H](O)[C@H]1C(=O)N2C(C(=O)O)=C(SCCNC=N)C[C@H]12 [IMIPENEM ANHYDROUS] | 0.25 (≈ 0.835 µM) | 0.125 (≈ 0.418 µM) | 0.25 (≈ 0.835 µM) | 0.25 (≈ 0.835 µM) | 0.016 (≈ 0.0534 µM) | 0.016 (≈ 0.0534 µM) | 0.008 (≈ 0.0267 µM) | 0.71 (≈ 2.37 µM) | 130 | 1980 | 334 | 598 | 0.337 (≈ 1.13 µM) | 0.115 (≈ 0.384 µM) | 0.054 (≈ 0.18 µM) | 441 | 2170 | 0.2 (≈ 0.668 µM) | 0.195 (≈ 0.651 µM) | 0.095 (≈ 0.317 µM) | IC50 [21]: 0.032 µg/mL (≈ 0.107 µM); IC50 [22]: 0.219 µg/mL (≈ 0.732 µM) |
| CC1(C)S[C@@H]2[C@H](NC(=O)Cc3ccccc3)C(=O)N2[C@H]1C(=O)O [PENICILLIN G] | 4 (≈ 12 µM) | 4 (≈ 12 µM) | 4 (≈ 12 µM) | 8 (≈ 23.9 µM) | 0.25 (≈ 0.748 µM) | 0.25 (≈ 0.748 µM) | 0.03 (≈ 0.0897 µM) | 0.248 (≈ 0.742 µM) | 83.7 | 123 | 32.9 | 23.9 | 0.015 (≈ 0.0449 µM) | 0.013 (≈ 0.0389 µM) | 0.02 (≈ 0.0598 µM) | 332 | 467 | 0.004 (≈ 0.012 µM) | 0.01 (≈ 0.0299 µM) | 0.007 (≈ 0.0209 µM) | IC50 [21]: 0.016 µg/mL (≈ 0.0478 µM); IC50 [22]: 0.01 µg/mL (≈ 0.0299 µM) |
